Measured values from PMC10347124, “Exploring the Anticancer Potential of Premna resinosa (Hochst.) Leaf Surface Extract: Discovering New Diterpenes as Heat Shock Protein 70 (Hsp70) Binding Agents” (Plants, 2023).

What was measured:
[1] = molecular target: T1, Hsp70 (Heat Shock Protein 70 1A) (Homo sapiens, UniProt P0DMV8); experiment: SPR (Biacore […]), single-site model; format: binding
T1 construct: gene HSPA1A; recombinant Hsp70 immobilized on CM5 chip

[2] = molecular target: T1, Hsp70 (Heat Shock Protein 70 1A); experiment: SPR (Biacore […]), single-site model; positive control; format: binding

T1 sequence (P0DMV8 2-641): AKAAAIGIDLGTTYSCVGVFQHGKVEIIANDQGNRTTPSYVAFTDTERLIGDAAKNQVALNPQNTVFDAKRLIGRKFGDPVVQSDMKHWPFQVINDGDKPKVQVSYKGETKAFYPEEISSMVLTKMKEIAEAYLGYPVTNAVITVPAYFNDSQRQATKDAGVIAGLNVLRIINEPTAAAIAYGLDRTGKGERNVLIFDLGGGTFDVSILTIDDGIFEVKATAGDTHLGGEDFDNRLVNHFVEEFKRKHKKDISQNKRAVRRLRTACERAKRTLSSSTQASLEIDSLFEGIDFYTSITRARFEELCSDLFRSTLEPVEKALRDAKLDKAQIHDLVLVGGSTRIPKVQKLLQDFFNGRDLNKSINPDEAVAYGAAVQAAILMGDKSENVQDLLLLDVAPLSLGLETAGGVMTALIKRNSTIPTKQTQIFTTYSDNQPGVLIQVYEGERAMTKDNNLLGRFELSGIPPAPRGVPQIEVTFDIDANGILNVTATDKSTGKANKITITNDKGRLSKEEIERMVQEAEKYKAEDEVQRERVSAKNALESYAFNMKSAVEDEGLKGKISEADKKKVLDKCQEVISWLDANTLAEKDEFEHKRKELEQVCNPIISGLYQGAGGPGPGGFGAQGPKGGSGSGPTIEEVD

Kd [1] [nM] | Kd [2] [nM] | Structure (SMILES)
1000 |  | CC1=CCC2C(C)(C)CCCC2(C)C1CC(O)C1=CC(=O)OC1 (single isomer, unassigned; ent-12) [compound 4, ent-12-hydroxylabda-7,13-dien-15,16-olide]
 | 81.4 | C=C1C(=O)[C@]23[C@H](O)[C@H]1CC[C@H]2[C@@]12CO[C@]3(O)[C@@H](O)[C@@H]1C(C)(C)CC[C@@H]2O [oridonin]
